Laboratory results as given in PubChem BioAssay AID1918945 (Molecular Pharmacology Branch, DTP, NCI, 2023).
Where “and” joins values, the source holds several entries; their conditions need not be identical. Identical values can stand only once.

System: 883617-216-R-J1-PDC complex spheroid viability
Test: Anticancer human tumor 883617-216-R-J1-PDC patient-derived bladder carcinoma cell line growth inhibition
Settings: for IC50: curve of first compound; for viability, T/C: stronger effect = lower value; active means viability on the fitted dose curve at most 10% of control; inactive means the rest
Outline: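 Multicellular complex spheroids of tumor cells with human endothelial cells (HUVEC) and mesenchymal stem cells; the LSD1 inhibitor iadademstat was combined with standard-of-care or investigational agents. Top concentration at or near clinical Cmax, half-log dilutions; final DMSO ≤0.25%.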

[1] = second compound 0.1 µM, first compound 0.00316 µM
[2] = second compound 0.1 µM, first compound 0.01 µM
[3] = second compound 0.1 µM, first compound 0.0316 µM
[4] = second compound 0.1 µM, first compound 0.1 µM
[5] = second compound 0.316 µM, first compound 0.00316 µM
[6] = second compound 0.316 µM, first compound 0.01 µM
[7] = second compound 0.316 µM, first compound 0.0316 µM
[8] = second compound 0.316 µM, first compound 0.1 µM
[9] = second compound 1 µM, first compound 0.00316 µM
[10] = second compound 1 µM, first compound 0.01 µM
[11] = second compound 1 µM, first compound 0.0316 µM
[12] = second compound 1 µM, first compound 0.1 µM
[13] = second compound 3.16 µM, first compound 0.00316 µM
[14] = second compound 3.16 µM, first compound 0.01 µM
[15] = second compound 3.16 µM, first compound 0.0316 µM
[16] = second compound 3.16 µM, first compound 0.1 µM
[17] = second compound 10 µM, first compound 0.00316 µM
[18] = second compound 10 µM, first compound 0.01 µM
[19] = second compound 10 µM, first compound 0.0316 µM
[20] = second compound 10 µM, first compound 0.1 µM
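Further: exposure lasted seven days after three days of spheroid growth.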
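Wherever viability, T/C is given: 100% = DMSO vehicle control luminescence.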

Nc1ncn(C2CC(O)C(CO)S2)c(=O)n1 (stereo unspecified) + NC1CC1c1ccc(-c2cccc(O)c2)cc1
27.6 nM: IC50 (second compound 0.1 µM)
24.5 nM: IC50 (second compound 3.16 µM)
40.7 nM: IC50 (second compound 0.316 µM)
inactive: viability, T/C (second compound 0.1 µM, first compound 0.000949 µM) 115% | viability, T/C (second compound 0.1 µM, first compound 0.003 µM) 97.1% | viability, T/C (second compound 0.1 µM, first compound 0.00949 µM) 67.2% | viability, T/C (second compound 0.1 µM, first compound 0.03 µM) 49.5% | viability, T/C (second compound 0.1 µM, first compound 0.0949 µM) 37.6% | viability, T/C (second compound 0.1 µM, first compound 0.3 µM) 29.5% | viability, T/C (second compound 0.316 µM, first compound 0.000949 µM) 119% | viability, T/C (second compound 0.316 µM, first compound 0.003 µM) 89.5% | viability, T/C (second compound 0.316 µM, first compound 0.00949 µM) 77.9% | viability, T/C (second compound 0.316 µM, first compound 0.03 µM) 51.3% | viability, T/C (second compound 0.316 µM, first compound 0.0949 µM) 38.1% | viability, T/C (second compound 0.316 µM, first compound 0.3 µM) 30.5% | viability, T/C (second compound 1 µM, first compound 0.000949 µM) 106% | viability, T/C (second compound 1 µM, first compound 0.003 µM) 101% | viability, T/C (second compound 1 µM, first compound 0.00949 µM) 64% | viability, T/C (second compound 1 µM, first compound 0.03 µM) 57.5% | viability, T/C (second compound 1 µM, first compound 0.0949 µM) 36% | viability, T/C (second compound 1 µM, first compound 0.3 µM) 29.4% | viability, T/C (second compound 3.16 µM, first compound 0.000949 µM) 92.8% | viability, T/C (second compound 3.16 µM, first compound 0.003 µM) 95.8% | viability, T/C (second compound 3.16 µM, first compound 0.00949 µM) 64.2% | viability, T/C (second compound 3.16 µM, first compound 0.03 µM) 47.1% | viability, T/C (second compound 3.16 µM, first compound 0.0949 µM) 38.7% | viability, T/C (second compound 3.16 µM, first compound 0.3 µM) 26.3% | viability, T/C (second compound 10 µM, first compound 0.000949 µM) 78.4% | viability, T/C (second compound 10 µM, first compound 0.003 µM) 76.7% | viability, T/C (second compound 10 µM, first compound 0.00949 µM) 56.7% | viability, T/C (second compound 10 µM, first compound 0.03 µM) 45% | viability, T/C (second compound 10 µM, first compound 0.0949 µM) 36.6% | viability, T/C (second compound 10 µM, first compound 0.3 µM) 33.1%
33.9 nM: IC50 (second compound 1 µM)
18.5 nM: IC50 (second compound 10 µM)

CC1COCCN1c1cc(-c2ccnn2C)c2ccnc(-c3ccn[nH]3)c2n1 (stereo unspecified) + NC1CCC(NC2CC2c2ccccc2)CC1
inactive: viability, T/C [1] 85% | viability, T/C [2] 62.2% | viability, T/C [3] 55.7% | viability, T/C [4] 41.2% | viability, T/C (second compound 0.1 µM, first compound 0.316 µM) 33.5% | viability, T/C (second compound 0.1 µM, first compound 1 µM) 31.5% | viability, T/C [5] 89.8% | viability, T/C [6] 62% | viability, T/C [7] 53.6% | viability, T/C [8] 40.4% | viability, T/C (second compound 0.316 µM, first compound 0.316 µM) 34% | viability, T/C (second compound 0.316 µM, first compound 1 µM) 30.8% | viability, T/C [9] 81.8% | viability, T/C [10] 60.2% | viability, T/C [11] 50.4% | viability, T/C [12] 43.8% | viability, T/C (second compound 1 µM, first compound 0.316 µM) 35.1% | viability, T/C (second compound 1 µM, first compound 1 µM) 28.4% | viability, T/C [13] 76.3% | viability, T/C [14] 59% | viability, T/C [15] 51.3% | viability, T/C [16] 47.2% | viability, T/C (second compound 3.16 µM, first compound 0.316 µM) 36.1% | viability, T/C (second compound 3.16 µM, first compound 1 µM) 28.3% | viability, T/C [17] 88.4% | viability, T/C [18] 66.7% | viability, T/C [19] 52.7% | viability, T/C [20] 45.5% | viability, T/C (second compound 10 µM, first compound 0.316 µM) 32.1% | viability, T/C (second compound 10 µM, first compound 1 µM) 25.5%
45.8 nM: IC50 (second compound 10 µM)
32.1 nM: IC50 (second compound 0.316 µM)
44.3 nM: IC50 (second compound 3.16 µM)
39.5 nM: IC50 (second compound 0.1 µM)
33.8 nM: IC50 (second compound 1 µM)

Cn1ncnc1C1c2n[nH]c(=O)c3cc(F)cc(c23)NC1c1ccc(F)cc1 (stereo unspecified)
inactive: viability, T/C (compound 0.000316 µM) 104% and 89.5% | viability, T/C (compound 0.001 µM) 104% and 89.1% | viability, T/C (compound 0.00316 µM) 105% and 70.6% | viability, T/C (compound 0.01 µM) 75.7% and 48.9% | viability, T/C (compound 0.0316 µM) 64.4% and 38.5% | viability, T/C (compound 0.1 µM) 54.2% and 38%

CC[C@@]1(O)C(=O)OCc2c1cc1n(c2=O)Cc2cc3c(CN(C)C)c(O)ccc3nc2-1 + NC1CCC(NC2CC2c2ccccc2)CC1
6.31 nM: IC50 (second compound 1 µM)
inactive: viability, T/C (second compound 0.1 µM, first compound 0.000316 µM) 94.9% | viability, T/C (second compound 0.1 µM, first compound 0.001 µM) 85.8% | viability, T/C [1] 55.2% | viability, T/C [2] 38.9% | viability, T/C [3] 33.8% | viability, T/C [4] 28.5% | viability, T/C (second compound 0.316 µM, first compound 0.000316 µM) 103% | viability, T/C (second compound 0.316 µM, first compound 0.001 µM) 104% | viability, T/C [5] 62.5% | viability, T/C [6] 42.6% | viability, T/C [7] 30.9% | viability, T/C [8] 32.4% | viability, T/C (second compound 1 µM, first compound 0.000316 µM) 93.7% | viability, T/C (second compound 1 µM, first compound 0.001 µM) 87.2% | viability, T/C [9] 57.4% | viability, T/C [10] 44.2% | viability, T/C [11] 36.2% | viability, T/C [12] 26.9% | viability, T/C (second compound 3.16 µM, first compound 0.000316 µM) 95.8% | viability, T/C (second compound 3.16 µM, first compound 0.001 µM) 86.1% | viability, T/C [13] 61.3% | viability, T/C [14] 42.5% | viability, T/C [15] 35.4% | viability, T/C [16] 28.8% | viability, T/C (second compound 10 µM, first compound 0.000316 µM) 99.3% | viability, T/C (second compound 10 µM, first compound 0.001 µM) 98.2% | viability, T/C [17] 74.7% | viability, T/C [18] 40% | viability, T/C [19] 36.7% | viability, T/C [20] 28.6%
4.71 nM: IC50 (second compound 0.1 µM)
6.47 nM: IC50 (second compound 3.16 µM)
5.7 nM: IC50 (second compound 0.316 µM)
7.25 nM: IC50 (second compound 10 µM)
